Legend:
Test in all cases: Cell proliferation inhibition experiment, CellTiter-Glo (CTG) method
Type in all cases: cell-based
NCI-H1975 = settings: for IC50: Homo sapiens, NCI-H1975, 72 h, NCI-H1975 cells, CTG, 3 days; for A-431/NCI-H1975 Selectivity: ratio of A-431 IC50 to NCI-H1975 IC50
How it was run: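 NCI-H1975 cells with viability above 90% by trypan blue were seeded at 90 μL per well in black 96-well plates and incubated overnight at 37° C., 5% CO2. Compounds were added at nine concentrations in triplicate, and viability was measured with CellTiter-Glo luminescence on EnVision. IC50 came from non-linear S-curve fitting in GraphPad Prism 5.0.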

PC-9 = settings: Homo sapiens, PC-9, 72 h, PC-9 cells, 3 days
How it was run: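 Cells in log-phase growth (viability above 90% by trypan blue) were seeded at 90 μL per well in black-walled, clear-bottom 96-well plates and incubated overnight at 37° C., 5% CO2. A T0 plate was read the next day. Test compounds were added at nine concentrations in triplicate with a solvent control. Viability was measured by CellTiter-Glo luminescence on EnVision, and IC50 came from non-linear S-curve fitting in GraphPad Prism 5.0.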

A-431 = settings: Homo sapiens, A-431, 72 h, A-431 cells, 3 days
How it was run: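 CTG luminescence measured after 3-day compound exposure, with a T0 plate read the day after seeding and solvent wells as control. Nine concentrations, 3-fold steps, in triplicate: A-431 from 30 μM, NCI-H1975 and PC-9 from 1.111 μM. IC50 derived by non-linear S-curve regression.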

SMILES | IC50 (NCI-H1975) [nM] | A-431/NCI-H1975 Selectivity (NCI-H1975) | IC50 (PC-9) [nM] | IC50 (A-431) [nM]
C=CC(=O)Nc1cc(Nc2cc(-c3ccc4c(cnn4C)c3)ncn2)c(OC(F)F)cc1N(C)CCN(C)C [compound 287] | 4 | 152.9 | 9.2 | 612
C=CC(=O)Nc1cc(Nc2cc(-c3ccc4c(cnn4C)c3)ncn2)c(OC(F)F)cc1N(C)C1CCN(C)C1 (stereo not drawn) [compound 111] | 18 | 52.7 | 16.8 | 948
C=CC(=O)Nc1cc(Nc2cc(-c3ccc4c(cnn4C)c3)ncn2)c(OC)cc1N(C)CCNC(C)(C)C [compound 61] | 17.8 | – | 9.4 | 1620
C=CC(=O)Nc1cc(Nc2cc(-c3ccc4cnn(C)c4c3)ncn2)c(OC)cc1N1CCC(N2CCOCC2)CC1 [compound 55] | 32.2 | – | 3.6 | 586
C=CC(=O)Nc1cc(Nc2nccc(-c3ccc4c(cnn4C)c3)n2)c(OC)cc1N(C)CCN1CCN(C2CC2)CC1 [compound 252] | 188 | 16.0 | 25.5 | 2990
C=CC(=O)Nc1cc(Nc2cc(-c3ccc4c(cnn4C)c3)ncn2)c(OC)cc1N1CCN(C(C)=O)CC1 [compound 20] | 46.1 | 33.9 | 24.9 | 1570
C=CC(=O)Nc1cc(Nc2cc(-c3ccc4cnn(C)c4c3)ncn2)c(OC)cc1N1CCC(C2CCN(C)CC2)CC1 [compound 53] | 151 | 8.3 | 67.9 | 1250
C=CC(=O)Nc1cc(Nc2cc(-c3ccc4cnn(C)c4c3)ncn2)c(OC)cc1N1CCCN(C)CC1 [compound 47] | 49 | 13.7 | 34 | 671
C=CC(=O)Nc1cc(Nc2cc(-c3ccc4c(cnn4C)c3)ncn2)c(OC)cc1N(C)C(=O)CN(C)C [compound 288] | 98.2 | 19.6 | 76.7 | 1920
C=CC(=O)Nc1cc(Nc2cc(-c3ccc4c(cnn4C)c3)ncn2)c(OC)cc1N(C)C1CCN(CCOC)C1 (stereo not drawn) [compound 222] | 13.6 | 72.3 | 20.7 | 983
C=CC(=O)Nc1cc(Nc2cc(-c3ccc4c(cnn4C)c3)ncn2)c(OC)cc1NCCN(C)C [compound 58] | 8.8 | – | 6.9 | 1130
C=CC(=O)Nc1cc(Nc2nccc(-c3ccc4c(cnn4C)c3)n2)c(OC)cc1C(=O)N(C)CCN(C)C [compound 290] | 30.8 | 52.9 | 36.5 | 1630
C=CC(=O)Nc1cc(Nc2nccc(-c3ccc4c(cnn4C)c3)n2)c(OC(F)F)cc1N1CCN(CCN(C)C)CC1 [compound 114] | 31.5 | 46.9 | 32.7 | 1480
C=CC(=O)Nc1cc(Nc2cc(-c3ccc4ncsc4c3)ncn2)c(OC)cc1N(C)C1CCN(C)CC1 [compound 81] | 28.7 | 48.1 | 26.4 | 1380
C=CC(=O)Nc1cc(Nc2cc(-c3ccc4ncsc4c3)ncn2)c(OC)cc1N(C)CCN1CCN(C2CC2)CC1 [compound 128] | 103 | 13.2 | 70.7 | 1370
C=CC(=O)Nc1cc(Nc2nccc(-c3ccc4c(cnn4C)c3)n2)c(OCC)cc1N(C)CCN(C)CC [compound 258] | 51.6 | 57.1 | 32.4 | 2950
C=CC(=O)Nc1cc(Nc2cc(-c3ccc4cnn(C)c4c3)ncn2)c(OC(F)F)cc1N1CCC(N2CCOCC2)CC1 [compound 161] | 17.4 | 59.3 | 19.9 | 1030
C=CC(=O)Nc1cc(Nc2cc(-c3ccc4c(cnn4C)c3)ncn2)c(OC(F)F)cc1N(C)CCN(CC)CC [compound 95] | 6.7 | 148.9 | 12.2 | 997
C=CC(=O)Nc1cc(Nc2cc(-c3ccc4c(cnn4C)c3)ncn2)c(OC(F)F)cc1OCCN(C)C [compound 171] | 26.2 | 28.4 | 38 | 743
C=CC(=O)Nc1cc(Nc2nccc(-c3ccc4c(cnn4C)c3)n2)c(OC)cc1N(C)C1CCN(C)CC1 [compound 231] | 96.8 | 17.8 | 76.5 | 1730

SMILES | IC50 (NCI-H1975) [nM] | A-431/NCI-H1975 Selectivity (NCI-H1975) | IC50 (PC-9) [nM] | IC50 (A-431) [nM]
C=CC(=O)Nc1cc(Nc2cc(-c3ccc4cnn(C)c4c3)ncn2)c(OC)cc1N1CCC(N2CC(OC)C2)CC1 [compound 207] | 10.2 | 87.7 | 5.6 | 895
C=CC(=O)Nc1cc(Nc2cc(-c3ccc4c(cnn4C)c3)ncn2)c(OC(F)F)cc1N1CCN(CC2CC2)CC1 [compound 149] | 28.4 | 48.2 | 674 | 1370
C=CC(=O)Nc1cc(Nc2cc(-c3ccc4cnn(C)c4c3)ncn2)c(OC)cc1N1CCC(OC)CC1 [compound 45] | 137 | 19.0 | 23.6 | 2610
C=CC(=O)Nc1cc(Nc2cc(-c3ccc4c(cnn4C)c3)ncn2)c(OC2CC2)cc1N(C)CCN(C)C [compound 291] | 89.5 | 30.6 | 54.3 | 2730
C=CC(=O)Nc1cc(Nc2cc(-c3ccc4cnn(C)c4c3)ncn2)c(OC)cc1N1CCN(CC)[C@@H](C)C1 [compound 48] | 67.2 | 20.7 | 49.7 | 1390
C=CC(=O)Nc1cc(Nc2cc(-c3ccc4cnn(C)c4c3)ncn2)c(OC)cc1N(C)C1CCN(CC)CC1 [compound 227] | 79.6 | 30.6 | 90.7 | 2440
C=CC(=O)Nc1cc(Nc2cc(-c3ccc4cnn(C)c4c3)ncn2)c(OC)cc1N1CCN(C)C(C)C1 (stereo not drawn) [compound 41] | 20.4 | 30.0 | 10.6 | 612
C=CC(=O)Nc1cc(Nc2cc(-c3ccc4c(cnn4C)c3)ncn2)c(OC)cc1N1CCN(C2CCC(OC)C2)CC1 (stereo not drawn) [compound 216] | 13.6 | 90.0 | 12.8 | 1220
C=CC(=O)Nc1cc(Nc2cc(-c3ccc4cnn(C)c4c3)ncn2)c(OC)cc1N1CCC(N2CCCC2=O)CC1 [compound 213] | 74.9 | 27.4 | 55.6 | 2060
C=CC(=O)Nc1cc(Nc2nccc(-c3ccc4c(cnn4C)c3)n2)c(OC)cc1N(C)CCN(C)CC [compound 241] | 22.9 | 45.3 | 211 | 1040
C=CC(=O)Nc1cc(Nc2cc(-c3ccc4c(cnn4C(C)C)c3)ncn2)c(OC)cc1N1C[C@@H](C)N(C)[C@@H](C)C1 [compound 83] | 67.2 | 22.6 | 77.9 | 1520
C=CC(=O)Nc1cc(Nc2cc(-c3ccc4cnn(C)c4c3)ncn2)c(OC(F)F)cc1N(C)CCN(C)C(C)C [compound 199] | 37.8 | 52.3 | 24.7 | 1980
C=CC(=O)Nc1c(N(C)CCN(C)C(C)C)cc(OC)c(Nc2cc(-c3ccc4cnn(C)c4c3)ncn2)c1F [compound 198] | 77.1 | 30.4 | 65.8 | 2340
C=CC(=O)Nc1cc(Nc2nccc(-c3ccc4c(cnn4C)c3)n2)c(OC)cc1N1CCN(CCOC)CC1 [compound 232] | 90.2 | 28.4 | 82.7 | 2560
C=CC(=O)Nc1cc(Nc2cc(-c3ccc4cnn(C)c4c3)ncn2)c(OC)cc1N1CCN(CCO)CC1 [compound 274] | 47 | 43.4 | 56.7 | 2040
C=CC(=O)Nc1cc(Nc2nccc(-c3ccc4c(cnn4C)c3)n2)c(OC)cc1N1CCC(N2C[C@@H](C)O[C@@H](C)C2)CC1 [compound 236] | 60 | 34.7 | 38.7 | 2080
C=CC(=O)Nc1cc(Nc2cc(-c3cc4cnn(C)c4cc3F)ncn2)c(OC)cc1N(C)C1CCN(C)C1 (stereo not drawn) [compound 195] | 20.4 | 70.5 | 19.5 | 1440
C=CC(=O)Nc1cc(Nc2cc(-c3ccc4c(cnn4C)c3)ncn2)c(OC)cc1N(C)C1CCN(C(C)C)CC1 [compound 142] | 24.5 | 39.5 | 32.6 | 968
C=CC(=O)Nc1cc(Nc2cc(-c3ccc4c(cnn4CC)c3)ncn2)c(OC)cc1N(C)CCN(C)C [compound 14] | 6.1 | 188.0 | 5.9 | 1150
